This is an account of results in ChEMBL document CHEMBL4483862, “Open-source discovery of chemical leads for next-generation chemoprotective antimalarials” (2018).

Molecules are shown by their SMILES.

This assay relates to Plasmodium berghei. Description: Luciferase/luciferin-expressing antifolate-resistant parasites were used to infect a culture of HepG2 cells that were pre-incubated with compounds. Infected hepatocytes emit light due to the luciferase reaction. Assay results are presented as the percent inhibition of light emission compared to control. […]. Type of assay: functional. The following applies: sporozoite; for IC90: read-out: LUCIFERASE INFECTION ASSAY - IC90.

Take `Cc1ccccc1OCc1occc1C(=O)Nc1cccc(-n2cnnn2)c1`: the IC90 was determined as 6.83 µM. Besides, the IC50 (HEPG2TOX_HILL_SLOPE 2.96, HEPG2TOX_R_SQUARED 0.854, PBLUC_HILL_SLOPE 2.81, PBLUC_R_SQUARED 0.577, read-out: LUCIFERASE INFECTION ASSAY - IC50) was 3.12 µM.

Consider `COc1cc(/C=C2\COC/C(=C\c3cc(OC)c(OC)c(OC)c3)C2=O)cc(OC)c1OC`, for which the concentration for an effect of 90% (IC90) was found to be 0.888 µM. For the same compound, the IC50 (HEPG2TOX_HILL_SLOPE 2.96, HEPG2TOX_R_SQUARED 0.98, PBLUC_HILL_SLOPE 14, PBLUC_R_SQUARED 0.753, read-out: LUCIFERASE INFECTION ASSAY - IC50) was found to be 0.759 µM.

On to `CC(=O)c1cccc(-c2ccnc3c2CC(C(=O)NCCc2ccccc2)O3)c1` (centres undefined), for which the IC90 came to 5.14 µM. The IC50 (HEPG2TOX_HILL_SLOPE 2.91, HEPG2TOX_R_SQUARED 0.95, PBLUC_HILL_SLOPE 2.2, PBLUC_R_SQUARED 0.478, read-out: LUCIFERASE INFECTION ASSAY - IC50) is 1.89 µM.

As for `COc1ccc(NC(=O)C2(C)Cc3c(-c4cccc(NC(C)=O)c4)ccnc3O2)cc1` (centres undefined), the 90% effect concentration (IC90) was determined as 3.58 µM. For the setting “HEPG2TOX_HILL_SLOPE 2.96, HEPG2TOX_R_SQUARED 0.838, PBLUC_HILL_SLOPE 2.85, PBLUC_R_SQUARED 0.605, read-out: LUCIFERASE INFECTION ASSAY - IC50”, the half-inhibitory concentration (IC50) worked out at 1.66 µM.

For `O=C(c1[nH]nc2ccccc12)N1CCN(Cc2ccc(C(F)(F)F)cc2)CC1`, the IC90 was above 10 µM. In addition, the 50% inhibitory concentration (IC50) (HEPG2TOX_HILL_SLOPE 2.95, HEPG2TOX_R_SQUARED 0.96, PBLUC_HILL_SLOPE 4.05, PBLUC_R_SQUARED 0.587, read-out: LUCIFERASE INFECTION ASSAY - IC50) came to 6.61 µM.

Regarding `Cc1cccc(OCCCC(=O)Nc2cc(C)n[nH]2)c1`, the concentration for an effect of 90% (IC90) worked out at 1.35 µM. Besides, the IC50 (HEPG2TOX_HILL_SLOPE 2.94, HEPG2TOX_R_SQUARED 0.896, PBLUC_HILL_SLOPE 6.3, PBLUC_R_SQUARED 0.571, read-out: LUCIFERASE INFECTION ASSAY - IC50) was determined as 0.951 µM.

As to `CCOc1ccc(S(=O)(=O)Nc2cc3c(C(=O)OC(C)C)c(C)oc3c3ccccc23)cc1`, the concentration for an effect of 90% (IC90) worked out at 2.86 µM. Besides, the half-inhibitory concentration (IC50) (HEPG2TOX_HILL_SLOPE 2.94, HEPG2TOX_R_SQUARED 0.937, PBLUC_HILL_SLOPE 3.2, PBLUC_R_SQUARED 0.642, read-out: LUCIFERASE INFECTION ASSAY - IC50) amounted to 1.44 µM.

On to `Nc1nccnc1C(=O)NNC(=O)c1cc2c(s1)CCCCCC2`, for which the IC90 was determined as 3.7 µM. For the same compound, the IC50 (HEPG2TOX_HILL_SLOPE 2.95, HEPG2TOX_R_SQUARED 0.777, PBLUC_HILL_SLOPE 11, PBLUC_R_SQUARED 0.184, read-out: LUCIFERASE INFECTION ASSAY - IC50) was 3.03 µM.

For `Cc1nn(Cc2ccccc2Cl)c(C)c1CN(C)C(=O)/C=C/c1cnn(-c2ccccc2)c1`, the IC90 was 9.8 µM. Further, under “HEPG2TOX_HILL_SLOPE 2.95, HEPG2TOX_R_SQUARED 0.991, PBLUC_HILL_SLOPE 3.77, PBLUC_R_SQUARED 0.729, read-out: LUCIFERASE INFECTION ASSAY - IC50”, the IC50 is 5.47 µM.

Take `O=C(/C=C/c1ccco1)Nc1ccc(Cl)c(Cl)c1`: the IC90 amounted to 11.3 µM. In addition, the IC50 (HEPG2TOX_HILL_SLOPE 2.91, HEPG2TOX_R_SQUARED 0.987, PBLUC_HILL_SLOPE 6.61, PBLUC_R_SQUARED 0.512, read-out: LUCIFERASE INFECTION ASSAY - IC50) is 8.1 µM.

Turning to `Cc1cccc2c(=O)nc(CSc3ncnc4sc(-c5ccccc5)cc34)[nH]c12`, the concentration for an effect of 90% (IC90) was above 10 µM. Further, the half-inhibitory concentration (IC50) (HEPG2TOX_HILL_SLOPE 2.96, HEPG2TOX_R_SQUARED 0.569, read-out: LUCIFERASE INFECTION ASSAY - IC50) was above 10 µM.

`Cn1cnc2cnc(Nc3ccc(F)c(Cl)c3)cc21`: the IC90 was above 10 µM. In addition, the IC50 (HEPG2TOX_HILL_SLOPE 2.92, HEPG2TOX_R_SQUARED 0.693, read-out: LUCIFERASE INFECTION ASSAY - IC50) was above 10 µM.

On to `COc1ccc(OC)c(CCNc2nc3cnc(-c4ccc5c(c4)OCO5)cc3n2C)c1`, for which the 90% effect concentration (IC90) stood at 2.5 µM. Besides, the 50% inhibitory concentration (IC50) (HEPG2TOX_HILL_SLOPE 2.94, HEPG2TOX_R_SQUARED 0.93, PBLUC_HILL_SLOPE 1.47, PBLUC_R_SQUARED 0.742, read-out: LUCIFERASE INFECTION ASSAY - IC50) amounted to 0.558 µM.

Regarding `CCOc1ccc(C(C)=O)cc1CSc1nc2ccccc2c(=O)n1C(C)COC` (centres undefined), the 90% effect concentration (IC90) stood at 3.98 µM. Moreover, the 50% inhibitory concentration (IC50) (HEPG2TOX_HILL_SLOPE 2.93, HEPG2TOX_R_SQUARED 0.419, PBLUC_HILL_SLOPE 1.84, PBLUC_R_SQUARED 0.699, read-out: LUCIFERASE INFECTION ASSAY - IC50) is 1.21 µM.

Take `COc1ccc(N(Cc2nc(-c3cccs3)oc2C)S(=O)(=O)c2cccs2)cc1`: the IC90 stood at 0.446 µM. Moreover, where the note is “HEPG2TOX_HILL_SLOPE 2.9, HEPG2TOX_R_SQUARED 0.761, PBLUC_HILL_SLOPE 1.87, PBLUC_R_SQUARED 0.806, read-out: LUCIFERASE INFECTION ASSAY - IC50”, the IC50 worked out at 0.137 µM.

As to `CNc1ccccc1C(=O)N/N=C/c1cc(Cl)cc(Cl)c1O`, the IC90 was above 9.76 µM. Further, the IC50 (HEPG2TOX_HILL_SLOPE 2.97, HEPG2TOX_R_SQUARED 0.147, PBLUC_HILL_SLOPE 9.98, PBLUC_R_SQUARED 0.459, read-out: LUCIFERASE INFECTION ASSAY - IC50) is above 9.76 µM.

Consider `C/C=C/c1ccc(Oc2nc(C(F)(F)F)nc3ccccc23)c(OC)c1`, for which the IC90 was 6.79 µM. Also, under “HEPG2TOX_HILL_SLOPE 2.94, HEPG2TOX_R_SQUARED 0.97, PBLUC_HILL_SLOPE 2.81, PBLUC_R_SQUARED 0.724, read-out: LUCIFERASE INFECTION ASSAY - IC50”, the IC50 is 3.1 µM.

`CCCN(CC(=O)Nc1ccc(Cl)cc1Cl)C(=O)c1cn2ccccc2n1`: the 90% effect concentration (IC90) is above 10 µM. The IC50 (HEPG2TOX_HILL_SLOPE 2.93, HEPG2TOX_R_SQUARED 0.207, PBLUC_HILL_SLOPE 1.46, PBLUC_R_SQUARED 0.174, read-out: LUCIFERASE INFECTION ASSAY - IC50) is above 10 µM.

As for `O=C(Nc1nc(CN2CCCC2)cs1)c1ccc(-c2ccccc2)cc1`, the 90% effect concentration (IC90) was above 10 µM. Also, the half-maximal inhibitory concentration (IC50) (HEPG2TOX_HILL_SLOPE 2.9, HEPG2TOX_R_SQUARED 0.919, read-out: LUCIFERASE INFECTION ASSAY - IC50) is above 10 µM.

With `Oc1cccc(-c2cnc3cnc(-c4ccccc4Cl)cn23)c1`, the 90% effect concentration (IC90) is above 10.3 µM. Under “HEPG2TOX_HILL_SLOPE 2.92, HEPG2TOX_R_SQUARED 0.924, PBLUC_HILL_SLOPE 1.11, PBLUC_R_SQUARED 0.809, read-out: LUCIFERASE INFECTION ASSAY - IC50”, the IC50 is 1.72 µM.

`COc1ccc(CN2CCN(C(=O)c3ccc(-n4cccn4)cc3)CC2)cc1F`: the IC90 was above 10 µM. Also, for the setting “HEPG2TOX_HILL_SLOPE 2.97, HEPG2TOX_R_SQUARED 0.899, PBLUC_HILL_SLOPE 2, PBLUC_R_SQUARED 0.568, read-out: LUCIFERASE INFECTION ASSAY - IC50”, the IC50 worked out at 3.44 µM.

Take `CCCOc1c(Cl)cc(C(=O)Nc2nonc2-c2cccs2)cc1Cl`: the 90% effect concentration (IC90) is 2.87 µM. In addition, the IC50 (HEPG2TOX_HILL_SLOPE 2.94, HEPG2TOX_R_SQUARED 0.74, PBLUC_HILL_SLOPE 28.4, PBLUC_R_SQUARED 0.116, read-out: LUCIFERASE INFECTION ASSAY - IC50) stood at 2.66 µM.

As for `Cc1n[n+]2c3c(cnc2s1)CC/C3=C/c1ccccc1`, the concentration for an effect of 90% (IC90) was 9.79 µM. For the same compound, the half-inhibitory concentration (IC50) (HEPG2TOX_HILL_SLOPE 2.96, HEPG2TOX_R_SQUARED 0.5, PBLUC_HILL_SLOPE 7.3, PBLUC_R_SQUARED 0.698, read-out: LUCIFERASE INFECTION ASSAY - IC50) was determined as 7.25 µM.

Consider `Cc1ccc(C(=O)Nc2nc3ccccn3c2C(=O)NC2CCCCC2)cc1`, for which the concentration for an effect of 90% (IC90) amounted to 1.16 µM. In addition, the half-inhibitory concentration (IC50) (HEPG2TOX_HILL_SLOPE 2.97, HEPG2TOX_R_SQUARED 0.276, PBLUC_HILL_SLOPE 14.7, PBLUC_R_SQUARED 0.56, read-out: LUCIFERASE INFECTION ASSAY - IC50) stood at 1 µM.

For the compound `COc1ccc(CNc2nc(C)nc3scc(-c4cccs4)c23)cn1`, the IC90 is above 10 µM. Moreover, the IC50 (HEPG2TOX_HILL_SLOPE 2.96, HEPG2TOX_R_SQUARED 0.967, read-out: LUCIFERASE INFECTION ASSAY - IC50) was above 10 µM.

As to `CC(C)NC(=O)N1CCc2nc(NCc3cccc(Oc4ccccc4)c3)ncc2C1`, the 90% effect concentration (IC90) was determined as 3.31 µM. Further, where the note is “HEPG2TOX_HILL_SLOPE 2.9, HEPG2TOX_R_SQUARED 0.984, PBLUC_HILL_SLOPE 15.1, PBLUC_R_SQUARED 0.233, read-out: LUCIFERASE INFECTION ASSAY - IC50”, the IC50 was 2.86 µM.

On to `CN(C)CCNc1cc(-c2ccco2)nc2ccccc12`, for which the concentration for an effect of 90% (IC90) was found to be 9.18 µM. For the same compound, the half-maximal inhibitory concentration (IC50) (HEPG2TOX_HILL_SLOPE 2.93, HEPG2TOX_R_SQUARED 0.885, PBLUC_HILL_SLOPE 3.51, PBLUC_R_SQUARED 0.62, read-out: LUCIFERASE INFECTION ASSAY - IC50) was 4.91 µM.
